{"source": "patent US20230139826A1", "about": "(NONO INC., priority 2020, published 2023)", "key": {"[1]": {"target": "plasmin (Homo sapiens, UniProt P00747)", "sequence (P00747 581-810 limits assumed, species assumed)": "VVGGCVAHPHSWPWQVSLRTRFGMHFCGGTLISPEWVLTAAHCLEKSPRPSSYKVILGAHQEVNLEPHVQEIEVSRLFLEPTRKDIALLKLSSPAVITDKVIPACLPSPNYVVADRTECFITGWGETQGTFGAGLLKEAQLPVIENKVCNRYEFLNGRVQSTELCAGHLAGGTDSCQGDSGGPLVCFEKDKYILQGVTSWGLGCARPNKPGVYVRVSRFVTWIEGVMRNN", "sequence (P00747 97-580 partner limits assumed, species assumed)": "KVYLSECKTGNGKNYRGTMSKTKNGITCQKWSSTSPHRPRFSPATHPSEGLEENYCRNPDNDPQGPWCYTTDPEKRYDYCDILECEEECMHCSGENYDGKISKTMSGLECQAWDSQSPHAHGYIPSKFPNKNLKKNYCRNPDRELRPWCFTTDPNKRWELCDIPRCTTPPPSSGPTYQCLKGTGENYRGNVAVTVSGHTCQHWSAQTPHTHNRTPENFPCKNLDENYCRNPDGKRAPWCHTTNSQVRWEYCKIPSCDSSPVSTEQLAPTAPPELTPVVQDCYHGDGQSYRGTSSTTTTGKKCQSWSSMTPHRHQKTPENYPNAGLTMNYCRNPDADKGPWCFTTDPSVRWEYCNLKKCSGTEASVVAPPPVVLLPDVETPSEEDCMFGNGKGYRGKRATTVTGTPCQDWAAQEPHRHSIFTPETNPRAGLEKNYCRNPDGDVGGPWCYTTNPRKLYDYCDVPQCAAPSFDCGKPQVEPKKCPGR", "experimental": "(A) LC/MS spectrum of nerinetide after incubation with plasmin in PBS. 10 uL aliquots of nerinetide (18 mg/mL) and plasmin (1 mg/mL) were incubated in 500 uL tubes of phosphate-buffered saline at 37 C for 5 min and the reaction stopped by cooling to −80 C until tested. […] (B, C) In-vitro effect of rt-PA on nerinetide content in rat (B) and human (C) plasma. Nerinetide was spiked into the plasma samples at t=0 at a concentration of 65 ug/ml, whereas alteplase (rt-PA) was administered as a 60 min infusion at the indicated concentration (D, E) In-vivo effect of the simultaneous administration of nerinetide and rt-PA on Cmax (D) and AUC (E) in the rat. The nerinetide bolus and alteplase (60 min infusion) were started simultaneously through two separate intravenous lines. Symbols represent mean±SD. […] […] (SEQ ID NO:3) (Full-length NA-1, undigested), […] […] (SEQ ID NO:8), […] […] (SEQ ID NO:10).\nDirect ELISA of the indicated biotinylated peptides to the PDZ2 domain of PSD-95. […] Symbols indicate the mean±SD of triplicate experiments. […] (B). […] E,F. Time course of nerinetide or D-TAT-L-2B9c content in rat plasma (E) and human plasma (F) during a challenge with tenecteplase (TNK; 37.5 ug/ml or 6.25 ug/ml, respectively). […] (repeated measures two-way ANOVA with a post hoc Sidak's multiple comparisons test, *P<0.01). Symbols are means±SD. […]"}, "[2]": {"test": "PK dose-separation study in cynomolgus macaques", "format": "in vivo, cynomolgus macaques (Macaca fascicularis)", "conditions": "macaque", "experimental": "We conducted further PK studies to probe the necessary dose-separation interval to mitigate degradation. These studies were conducted in cynomolgus macaques (Macaca fascicularis) to maximize their relevance to humans. Nerinetide was given as a 10-minute intravenous infusion at a dose of 2.6 mg/kg. This dosing regimen was neuroprotective in macaques exposed to stroke by LVO (Cook et al., Nature 483, 213-217 (2012)) and was used in both the Phase 2 ENACT trial (Lancet Neurol 11, 942-950 (2012)) and the ESCAPE-NA1 trial (Lancet 395, 878-887 (2020)). We examined the scenarios in which alteplase administration was started simultaneously with the nerinetide infusion start, at the end of the 10-minute nerinetide infusion, or 10 minutes after the end of nerinetide infusion. Alteplase (1 mg/kg) was administered through a separate intravenous line as a 10% bolus, followed by an infusion of the remaining 90% over 1 hour, as per its clinical use."}, "[3]": {"test": "Nerinetide plasma levels in ESCAPE-NA1 subjects with and without alteplase", "format": "in vivo, human", "experimental": "All patients had standard assessments of demographic characteristics, medical history, laboratory values and stroke severity (NIHSS score). In some patients, up to 6 consecutive blood samples were drawn following dosing for pharmacokinetic analysis of nerinetide levels.\nNerinetide plasma levels were obtained from 22 subjects in ESCPAE-NA1 and previously acquired data from 8 healthy volunteer subjects receiving a single dose of 2.6 mg/kg nerinetide intravenously. Time 0 is a preinfusion time-point. […] The bars represent standard error of the mean. […] In the presence of alteplase, nerinetide's maximum level was reduced by more than 50% with decline to background level by 60 minutes. […] (p=0.0119, mixed effects linear regression)."}, "[4]": {"test_system": "embolic middle cerebral artery occlusion (eMCAO)", "test": "Rat embolic middle cerebral artery occlusion model with alteplase reperfusion", "format": "in vivo, Sprague-Dawley rats", "experimental": "To test this, male Sprague-Dawley rats (10-12 weeks old; 270-310 g; Charles River, Montreal, QC, Canada) were subjected to embolic middle cerebral artery occlusion (eMCAO), produced by the introduction of an autologous blood thrombus into the middle cerebral artery. Reperfusion was achieved by treatment with intravenous alteplase at a total dose of 5.4 mg/kg beginning at 90 minutes after ischemia onset. Alteplase was administered using the human injection protocol in which 10% of the total dose is given as a bolus, with the remainder 90% of the dose being given over a 60-minute infusion. […] This dose was chosen because in pilot studies, higher doses of alteplase (10× human dose) produced unacceptable mortality rates due to hemorrhagic conversions of strokes. Nerinetide was administered either 30 minutes prior to, or concurrently with, the start of the alteplase administration (FIG. 5A) at a dose of 7.6 mg/kg. […] Infarct volumes, hemispheric swelling and neurological scores were evaluated at 24 hours.\nMale Sprague-Dawley rats were subjected to eMCAO as already described. Nerinetide (7.6 mg/kg) or D-Tat-L-2B9c (7.6 mg/kg) were given as bolus injections at 60 minutes. Alteplase (5.4 mg/kg over 60 min) was also started at 60 min after eMCAO, concurrently with the active agent that inhibits PSD-95. Neurological scoring, infarct volume, and hemispheric swelling were assessed at 24 hours (FIG. 8A).\nThe studies were designed to have 80% power to detect a 40% absolute difference between control and treatment groups at p=0.05. Animal randomization, drug allocation and treatment drug preparation were performed by a research associate not directly involved with surgical or outcome assessment. Nerinetide and D-Tat-L-2B9c were freshly prepared at a concentration of 7.6 mg/mL in 500 uL aliquots. Alteplase was prepared from lyophilized drug and, like matching placebo, stored in identical glass tubes. Drugs were kept at 4° C. until 10 minutes prior to use. The surgeon and the investigators responsible for the surgery, stroke volume measurement, behavioural assessment and statistical analysis were blinded to treatment allocation."}, "[5]": {"test_system": "transient middle cerebral artery occlusion (tMCAO)", "test": "Rat transient middle cerebral artery occlusion model", "procedure": "Nerinetide and lodoxamide was administered to rats intravenously as a bolus injection, 60 minutes after tMCAo. […] Bars in A and represent mean±SD, with all individual data points plotted. Asterisks in A indicate P<0.01 when compared to the vehicle group (one-way ANOVA post hoc Tukey's correction for multiple comparisons test) N=12-14 animals/group. […] Significant differences are indicated with an asterisk when compared to the vehicle group (Kruskal-Wallis analysis of variance on ranks with a post-hoc Dunn's correction for multiple comparisons test, *P<0.01). Vehicle: PBS alone. Scrambled: ADA peptide incapable of binding PSD-95.\nAll animals subjected to surgery had their physiological parameters measured prior to MCA occlusion. PE-50 polyethylene tubing was inserted into the right femoral artery for invasive monitoring of mean arterial blood pressure and for obtaining blood samples to measure blood gases (pH, PaO2, and PaCO2), electrolytes (Na^+, K^+, iCa) and plasma glucose at baseline [Blood gas cartridge CG8+, VetScan i-STAT 1 Analyzer].\nInfarct volumes and hemispheric swelling were evaluated at 24 hours post-stroke from standard brain slices stained with 2% 2,3,5-triphenyltetrazolium chloride (Sigma Aldrich, St. Louis, Md., USA)(7). Neurologic scoring was conducted at 24 hours after stroke onset using forelimb-placing tests comprising of frontal visual placing, sideways visual placing, frontal tactile placing, sideways tactile placing, and vertical tactile placing (scores range from 0-2 in each component for a maximum of 12 indicating maximum impairment."}, "[6]": {"conditions": "alteplase started at the end of the nerinetide infusion"}, "[7]": {"conditions": "30-minute dose separation between nerinetide and alteplase"}}, "note": "Residues, ends and D or L forms follow the SMILES beside them.", "data": [{"smiles": "CC[C@H](C)[C@H](NC(=O)[C@H](CO)NC(=O)[C@H](CO)NC(=O)[C@H](CC(C)C)NC(=O)[C@H](CCCCN)NC(=O)[C@H](CCCN=C(N)N)NC(=O)[C@H](CCCN=C(N)N)NC(=O)[C@H](CCCN=C(N)N)NC(=O)[C@H](CCC(N)=O)NC(=O)[C@H](CCCN=C(N)N)NC(=O)[C@H](CCCN=C(N)N)NC(=O)[C@H](CCCCN)NC(=O)[C@H](CCCCN)NC(=O)[C@H](CCCN=C(N)N)NC(=O)CNC(=O)[C@@H](N)Cc1ccc(O)cc1)C(=O)N[C@@H](CCC(=O)O)C(=O)N[C@@H](CO)C(=O)N[C@@H](CC(=O)O)C(=O)N[C@H](C(=O)O)C(C)C", "note": "[Nerinetide] (H-YGRKKRRQRRRKLSSIESDV-OH)", "values": [{"measurement": "stability alone in phosphate buffered saline", "setting": "[1]", "value": "stable"}, {"measurement": "degradation of Cmax or AUC by alteplase", "setting": "[2]; alteplase 10 minutes after the end of the 10-min nerinetide infusion", "value": "eliminated degradation of Cmax or AUC"}, {"measurement": "reduction in the AUC of nerinetide", "setting": "[2]; [6]", "value": 32.3, "unit": "%"}, {"measurement": "reduction of the Cmax of nerinetide", "setting": "[2]; [6]", "value": 23.1, "unit": "%"}, {"measurement": "reduction in the AUC of nerinetide", "setting": "[2]; alteplase started simultaneously", "value": 53.9, "unit": "%"}, {"measurement": "reduction of the Cmax of nerinetide", "setting": "[2]; nerinetide 2.6 mg/kg 10-minute infusion, alteplase 1 mg/kg started simultaneously", "value": 47.4, "unit": "%"}, {"measurement": "time of decline of plasma level to background", "setting": "[3]; absence of alteplase", "value": "about 120 minutes"}, {"measurement": "time at which plasma peak levels were reached", "setting": "[3]; absence of alteplase, 2.6 mg/kg iv", "value": "ten"}, {"measurement": "AUC change", "setting": "[3]; presence of alteplase", "value": "similarly reduced"}, {"measurement": "reduction of maximum plasma level", "setting": "[3]; presence of alteplase", "value": "more than 50%"}, {"measurement": "time of decline of plasma level to background", "setting": "[3]; presence of alteplase", "value": 60, "unit": "min"}, {"measurement": "hemispheric swelling", "setting": "[4]; [7]", "value": "reducing hemispheric swelling"}, {"measurement": "neurological scores", "setting": "[4]; [7]", "value": "improving neurological scores"}, {"measurement": "reduction of infarction volume", "setting": "[4]; nerinetide alone 7.6 mg/kg, 60 minutes after eMCAO, 24 hours", "value": 59.2, "unit": "%"}, {"measurement": "infarction volume", "setting": "[4]; nerinetide alone 60 minutes after eMCAO (FIG. 5B), control 427±27", "value": "175±40", "unit": "mm^3"}, {"measurement": "infarction volume", "setting": "[4]; nerinetide alone 60 minutes after eMCAO, absence of alteplase (FIG. 8B), control 458±39", "value": "296±66", "unit": "mm^3"}, {"measurement": "infarct volume reduction", "setting": "[4]; nerinetide at 60 minutes followed by alteplase 30 minutes later", "value": 70, "unit": "%"}, {"measurement": "effect on infarction volume when given concurrently with alteplase", "setting": "[4]; peptide 7.6 mg/kg and alteplase 5.4 mg/kg both at 60 min after eMCAO", "value": "eliminated completely"}, {"measurement": "neurological function 24 hours after tMCAo", "setting": "[5]; doses as low as 0.25 mg/kg", "value": "improvement"}, {"measurement": "infarct volume 24 hours after tMCAo", "setting": "[5]; doses as low as 0.25 mg/kg, vs vehicle", "value": "significant reduction"}, {"measurement": "efficacy in tMCAo", "setting": "[5]; doses of as little as 0.025 mg/kg", "value": "effective"}, {"measurement": "efficacy in tMCAo", "setting": "[5]; doses up to at least 25 mg/kg", "value": "effective"}, {"measurement": "reducing infarction volume, hemispheric swelling and improving neurological scores", "setting": "[5]; rat tMCAO, comparison of the two peptides", "value": "equally effective"}, {"measurement": "dose with the highest efficacy", "setting": "[5]; rat tMCAo dose-response", "value": "about 15 mg/kg"}, {"measurement": "effective dosage range (reducing infarction size and neurologic deficit)", "setting": "[5]; rat tMCAo, iv bolus 60 minutes after tMCAo, with lodoxamide", "value": "0.025-25 mg/kg"}]}]}
